Measured values taken from patent publication US9469831B2, “Lactobacillus plantarum cells with improved resistance to high concentrations of ethanol” (Chr. Hansen A/S, priority 2011, dated 2016).
≈ marks a conversion by molar mass, not a printed value.

Columns and labels:
[1] = test system: Lactobacillus plantarum CHCC14158; details: strain CHCC14158; GJ-5 medium with 11% ethanol, 3 days incubation at 25° C.
Method: (§1) Medium: The medium is the standard GJ-5 medium as used in Example 1 above.
(§2) A Lactobacillus plantarum cell that has an improved resistance towards ethanol as discussed herein—is herein defined as a Lactobacillus plantarum cell that can grow to an OD600 of at least 0.8 after 3 days incubation at 25° C. in the GJ-5 medium with 11% ethanol.

[2] = test system: Lactobacillus plantarum CHCC14254; details: strain CHCC14254; GJ-5 medium with 11% ethanol, 3 days incubation at 25° C.
Method: as §1, §2

[3] = test system: Lactobacillus plantarum CHCC14255; details: strain CHCC14255; GJ-5 medium with 11% ethanol, 3 days incubation at 25° C.
Method: as §1, §2

[4] = test system: Lactobacillus plantarum CHCC14158; assay: D-cycloserine resistance assay (OD600 growth in GJ-5 medium); format: cell-based; details: Lactiplantibacillus plantarum, strain CHCC14158, 24 hours growth at 18° C., vs 0 μg/ml D-cycloserine, read-out: amount of D-cycloserine that reduces the OD600 measured growth with 50%
Method: (§3) Medium: The medium is the known Grape Juice GJ-5 medium described in column 20, lines 10 to 20 of U.S. Pat. No. 7,112,346 (Chr. Hansen A/S).
(§4) As described in lines 10 to 20 of U.S. Pat. No. 7,112,346—the GJ-5 medium has the following composition: • Grape juice concentrate 70.0 g • Yeast paste 30.0 g • Tween 80 0.5 g • MnSO4H2O 0.1 g • Tap water 900.0 g
(§5) A Lactobacillus plantarum strain of interest is inoculated into 10 ml GJ-5 medium containing one of the following amounts of D-cycloserine: 0 μg/ml, 10 μg/ml, 20 μg/ml, 30 μg/ml, 50 μg/ml, 70 μg/ml, 100 μg/ml, 150 μg/ml or 200 μg/ml of D-cycloserine. The strain is grown 24 hours at 18° C. in the GJ-5 medium with the different concentrations of D-cycloserine.
(§6) After the 24 hours growth is OD600 measured for all samples.

[5] = test system: Lactobacillus plantarum CHCC14254; assay: as above; format: cell-based; details: Lactiplantibacillus plantarum, strain CHCC14254, 24 hours growth at 18° C., vs 0 μg/ml D-cycloserine, read-out: amount of D-cycloserine that reduces the OD600 measured growth with 50%
Method: as §3, §4, §5, §6

[6] = test system: Lactobacillus plantarum CHCC14255; assay: as above; format: cell-based; details: Lactiplantibacillus plantarum, strain CHCC14255, 24 hours growth at 18° C., vs 0 μg/ml D-cycloserine, read-out: amount of D-cycloserine that reduces the OD600 measured growth with 50%
Method: as §3, §4, §5, §6

SMILES | OD600 reached by growth in presence of ethanol [1] | OD600 reached by growth in presence of ethanol [2] | OD600 reached by growth in presence of ethanol [3] | IC50 [4] | IC50 [5] | IC50 [6]
CCO [ethanol] | around 0.65 | at least 0.8 | more than 1 | – | – | –
N[C@@H]1CON=C1O [D-cycloserine, D-4-amino-isoxazolidone] | – | – | – | 60 to 65 µg/mL (≈ 588 to 637 µM) | ~100 µg/mL (≈ 979 µM) | ~100 µg/mL (≈ 979 µM)
